Measurements taken from PubChem BioAssay AID256 (DTP/NCI, 2004).
Values joined by “and” are separate entries in the source; they are usually repeats but may differ in a detail not shown here. Equal values may be shown once. Inconclusive results and toxic doses are left out. Rule for the calls: active = survival T/C of 150% or more; inactive = T/C below 125% in these data.

Tested on: CD2F1 mice, L1210 leukemia ip, survival T/C
Assay: NCI In Vivo Anticancer Drug Screen. Data for tumor model L1210 Leukemia (intraperitoneal) in CD2F1 (CDF1) mice
Conditions: higher = longer survival
How it was run: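 Implant tumor; dose compound or vehicle; measure endpoint in both groups; report treated divided by control.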

[1] = endpoint: mean survival time, dose: 100.0 mg/kg/injection, schedule: Q04DX003 (ip), vehicle: saline with Tween-80
[2] = endpoint: mean survival time, dose: 200.0 mg/kg/injection, schedule: Q04DX003 (ip), vehicle: saline with Tween-80
[3] = endpoint: mean survival time, dose: 400.0 mg/kg/injection, schedule: Q04DX003 (ip), vehicle: saline with Tween-80
[4] = endpoint: mean survival time, dose: 12.5 mg/kg/injection, schedule: Q01DX009 (ip), vehicle: saline with Tween-80
[5] = endpoint: mean survival time, dose: 25.0 mg/kg/injection, schedule: Q01DX009 (ip), vehicle: saline with Tween-80
[6] = endpoint: mean survival time, dose: 100.0 mg/kg/injection, schedule: Q04DX003 (ip), vehicle: saline
[7] = endpoint: mean survival time, dose: 200.0 mg/kg/injection, schedule: Q04DX003 (ip), vehicle: saline
[8] = endpoint: mean survival time, dose: 100.0 mg/kg/injection, schedule: Q01DX009 (ip), vehicle: saline with Tween-80
[9] = endpoint: mean survival time, dose: 200.0 mg/kg/injection, schedule: Q01DX009 (ip), vehicle: saline with Tween-80
[10] = endpoint: mean survival time, dose: 400.0 mg/kg/injection, schedule: Q01DX009 (ip), vehicle: saline with Tween-80
[11] = endpoint: mean survival time, dose: 50.0 mg/kg/injection, schedule: Q01DX009 (ip), vehicle: saline with Tween-80
[12] = endpoint: mean survival time, dose: 6.25 mg/kg/injection, schedule: Q01DX009 (ip), vehicle: Klucel (hydroxypropylcellulose) (HPC)
[13] = endpoint: mean survival time, dose: 12.5 mg/kg/injection, schedule: Q01DX009 (ip), vehicle: Klucel (hydroxypropylcellulose) (HPC)
[14] = endpoint: mean survival time, dose: 25.0 mg/kg/injection, schedule: Q01DX009 (ip), vehicle: Klucel (hydroxypropylcellulose) (HPC)
[15] = endpoint: mean survival time, dose: 50.0 mg/kg/injection, schedule: Q01DX009 (ip), vehicle: Klucel (hydroxypropylcellulose) (HPC)
[16] = endpoint: mean survival time, dose: 100.0 mg/kg/injection, schedule: Q01DX009 (ip), vehicle: Klucel (hydroxypropylcellulose) (HPC)

Measured: T/C

O=C(c1ccc([N+](=O)[O-])cc1)n1ncc2ccccc21
inactive: endpoint: median survival time, dose: 25.0 mg/kg/injection, schedule: Q04DX002 (ip), vehicle: saline with Tween-80 100 % of control | endpoint: median survival time, dose: 50.0 mg/kg/injection, schedule: Q04DX002 (ip), vehicle: saline with Tween-80 100 % of control | endpoint: median survival time, dose: 100.0 mg/kg/injection, schedule: Q04DX002 (ip), vehicle: saline with Tween-80 100 % of control | endpoint: median survival time, dose: 200.0 mg/kg/injection, schedule: Q04DX002 (ip), vehicle: saline with Tween-80 100 % of control

CC(=O)OC1CCC2(C)C(=CCC3C2CCC2(C)C(C(C)CCCC(C)(C)O)CCC32)C1 (stereo not given)
inactive: [1] 97 % of control | [2] 89 % of control | [3] 94 % of control

CC12CCCC1=C1CCC3CC(OC(=O)c4ccccc4)CCC3(C)C1CC2 (stereo not given)
inactive: [1] 100 % of control | [2] 96 % of control | [3] 100 % of control

CSc1ncnc2c(C3OC(COC(C)=O)C(OC(C)=O)C3OC(C)=O)[nH]nc12 (stereo not given)
inactive: endpoint: median survival time, dose: 8.0 mg/kg/injection, schedule: Q01DX005 (ip), vehicle: distilled water + Tween-80 94 % of control | endpoint: median survival time, dose: 16.0 mg/kg/injection, schedule: Q01DX005 (ip), vehicle: distilled water + Tween-80 103 % of control | endpoint: median survival time, dose: 32.0 mg/kg/injection, schedule: Q01DX005 (ip), vehicle: distilled water + Tween-80 96 % of control | endpoint: median survival time, dose: 64.0 mg/kg/injection, schedule: Q01DX005 (ip), vehicle: distilled water + Tween-80 103 % of control | endpoint: median survival time, dose: 128.0 mg/kg/injection, schedule: Q01DX005 (ip), vehicle: distilled water + Tween-80 106 % of control

CC(=O)N(C)NC(=O)c1ccccn1
inactive: endpoint: mean survival time, dose: 50.0 mg/kg/injection, schedule: Q01DX001 (ip), vehicle: water 106 % of control | endpoint: mean survival time, dose: 100.0 mg/kg/injection, schedule: Q01DX001 (ip), vehicle: water 103 % of control | endpoint: mean survival time, dose: 200.0 mg/kg/injection, schedule: Q01DX001 (ip), vehicle: water 102 % of control | endpoint: mean survival time, dose: 400.0 mg/kg/injection, schedule: Q01DX001 (ip), vehicle: water 103 % of control

CC(C)NC(C)C
inactive: endpoint: mean survival time, dose: 200.0 mg/kg/injection, schedule: Q04DX002 (ip), vehicle: saline with Tween-80 98 % of control | endpoint: mean survival time, dose: 400.0 mg/kg/injection, schedule: Q04DX002 (ip), vehicle: saline with Tween-80 98 % of control

COC1CCC2=C(C1)C(=O)CC1c3ccccc3CCN21 (stereo not given) (tested in a mixture with another compound)
inactive: endpoint: mean survival time, dose: 6.25 mg/kg/injection, schedule: Q01DX009 (ip), vehicle: saline with Tween-80 96 % of control | [4] 98 % of control | [5] 96 % of control

CCCCNC(=O)CC(C)C(=O)O (stereo not given)
inactive: [1] 102 % of control | [2] 98 % of control | [3] 102 % of control

CC1CN1C(=O)OCCOC(=O)N1CC1C (stereo not given)
inactive: endpoint: mean survival time, dose: 200.0 mg/kg/injection, schedule: Q01DX Z (ip), vehicle: saline 120 % of control | endpoint: mean survival time, dose: 300.0 mg/kg/injection, schedule: Q01DX Z (ip), vehicle: saline 117 % of control | endpoint: mean survival time, dose: 450.0 mg/kg/injection, schedule: Q01DX Z (ip), vehicle: saline 117 % of control

CC(=O)NCCCN1CCOCC1
inactive: [6] 96 % of control | [7] 104 % of control | endpoint: mean survival time, dose: 400.0 mg/kg/injection, schedule: Q04DX003 (ip), vehicle: saline 98 % of control

O=P(c1ccccc1)(c1ccccc1)c1ccccc1
inactive: [8] 97 % of control | [1] 97 % of control | [9] 95 % of control | [2] 100 % of control | [10] 100 % of control

COc1cccc(C(=O)c2ccccc2NC(C)=O)c1
inactive: [8] 101 % of control | [9] 103 % of control | [10] 98 % of control

Cc1ccc(C(=O)Nc2ccc(S(=O)(=O)O)c3cc(S(=O)(=O)O)cc(S(=O)(=O)O)c23)cc1NC(=O)c1cccc(NC(=O)Nc2cccc(C(=O)Nc3cc(C(=O)Nc4ccc(S(=O)(=O)O)c5cc(S(=O)(=O)O)cc(S(=O)(=O)O)c45)ccc3C)c2)c1
inactive: endpoint: median survival time, dose: 12.5 mg/kg/injection, schedule: Q01DX005 (ip), vehicle: saline 101 % of control | endpoint: median survival time, dose: 25.0 mg/kg/injection, schedule: Q01DX005 (ip), vehicle: saline 101 % of control | endpoint: median survival time, dose: 50.0 mg/kg/injection, schedule: Q01DX005 (ip), vehicle: saline 116 % of control

CCN(CC)CCCNc1c2ccc(Cl)cc2nc2ccc(OC)nc12
inactive: [11] 109 % of control | [8] 97 % of control | [9] 114 % of control

Nc1ccc(S(=O)(=O)S(=O)(=O)c2ccc(N)cc2)cc1
inactive: endpoint: mean survival time, dose: 100.0 mg/kg/injection, schedule: Q01DX001 (ip), vehicle: saline with Tween-80 93 % of control | endpoint: mean survival time, dose: 200.0 mg/kg/injection, schedule: Q01DX001 (ip), vehicle: saline with Tween-80 97 % of control

O=CN/N=C/c1ccc2c(c1)CCC2
inactive: [1] 107 % of control | [2] 96 % of control | [3] 96 % of control

Cc1ccc(C(O)S(=O)(=O)O)cc1 (stereo not given)
inactive: [1] 119 % of control | [2] 103 % of control | [3] 115 % of control

CCCCC(CC)C(O)CC(O)CC (stereo not given)
inactive: [1] 92 % of control | [2] 91 % of control | [3] 91 % of control

CCn1c(=S)[nH]c(=O)c2n[nH]nc21
inactive: endpoint: mean survival time, dose: 100.0 mg/kg/injection, schedule: Q01DX009 (ip), vehicle: acetone 100 % of control | endpoint: mean survival time, dose: 200.0 mg/kg/injection, schedule: Q01DX009 (ip), vehicle: acetone 94 % of control

C(COCCOCC1CO1)OCCOCC1CO1 (stereo not given)
inactive: [4] 104 % of control | [5] 108 % of control | [11] 104 % of control | [8] 106 % of control | [9] 104 % of control

CC1OC1c1ccc(-c2ccc(C3OC3C)cc2)cc1 (stereo not given)
inactive: endpoint: mean survival time, dose: 150.0 mg/kg/injection, schedule: Q01DX Z (ip), vehicle: saline 101 % of control

O=C1CCC2(c3ccccc3)C1C2c1ccccc1 (stereo not given)
inactive: [1] 110 % of control | [2] 112 % of control | [3] 101 % of control

CCOC(=O)C[n+]1ccccc1
inactive: [6] 107 % of control and 95 % of control | [7] 90 % of control and 89 % of control

O=C(O)CN(CCO)CCN(CC(=O)O)CC(=O)O
inactive: [5] 102 % of control | [11] 108 % of control | [8] 105 % of control | [6] 104 % of control

O=c1[nH][nH]c2nccnc12
inactive: endpoint: mean survival time, dose: 12.5 mg/kg/injection, schedule: Q01DX005 (ip), vehicle: water 93 % of control | endpoint: mean survival time, dose: 25.0 mg/kg/injection, schedule: Q01DX005 (ip), vehicle: water 93 % of control | endpoint: mean survival time, dose: 50.0 mg/kg/injection, schedule: Q01DX005 (ip), vehicle: water 96 % of control | endpoint: mean survival time, dose: 100.0 mg/kg/injection, schedule: Q01DX005 (ip), vehicle: water 98 % of control | endpoint: mean survival time, dose: 200.0 mg/kg/injection, schedule: Q01DX005 (ip), vehicle: water 101 % of control

CCC(=N\N=C(N)N)/C(C)=N\N=C(N)N
inactive: endpoint: mean survival time, dose: 15.0 mg/kg/injection, schedule: Q01DX009 (ip), vehicle: saline 95 % of control | endpoint: mean survival time, dose: 30.0 mg/kg/injection, schedule: Q01DX009 (ip), vehicle: saline 91 % of control

CCCc1nc2[nH]cnc(=S)c2[nH]1
inactive: endpoint: mean survival time, dose: 12.5 mg/kg/injection, schedule: Q01DX005 (ip), vehicle: other 110 % of control | endpoint: mean survival time, dose: 25.0 mg/kg/injection, schedule: Q01DX005 (ip), vehicle: other 108 % of control | endpoint: mean survival time, dose: 50.0 mg/kg/injection, schedule: Q01DX005 (ip), vehicle: other 96 % of control

CCN=c1cc2oc3cc(NCC)c(C)cc3c(-c3ccccc3C(=O)OCC)c-2cc1C
inactive: endpoint: mean survival time, dose: 2.5 mg/kg/injection, schedule: Q04DX003 (ip), vehicle: saline 101 % of control | endpoint: mean survival time, dose: 5.0 mg/kg/injection, schedule: Q04DX003 (ip), vehicle: saline 109 % of control | endpoint: mean survival time, dose: 10.0 mg/kg/injection, schedule: Q04DX003 (ip), vehicle: saline 90 % of control and 102 % of control

CNC(=O)OCc1c(COC(=O)NC)c(C)n(-c2ccc(OC)cc2)c1C
inactive: endpoint: mean survival time, dose: 3.12 mg/kg/injection, schedule: Q01DX009 (ip), vehicle: Klucel (hydroxypropylcellulose) (HPC) 101 % of control and 106 % of control | [12] 101 % of control and 106 % of control | [13] 113 % of control and 102 % of control | [14] 121 % of control and 98 % of control | [15] 116 % of control and 121 % of control | [16] 87 % of control

C[C@]12CC[C@@H]3c4ccc(O)cc4CC[C@H]3[C@@H]1CC[C@@H]2O
inactive: [12] 94 % of control | [13] 100 % of control | [14] 97 % of control | [15] 96 % of control | [16] 105 % of control | endpoint: mean survival time, dose: 200.0 mg/kg/injection, schedule: Q01DX009 (ip), vehicle: Klucel (hydroxypropylcellulose) (HPC) 96 % of control
